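Test compounds were applied to cells in 96-well plates for 48 hours at 5 doses. TGI denotes the concentration required for complete inhibition of growth.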
Legend:
Test in all cases: growth of human tumour cells (NCI), 48 h
MOLT-4 leukemia = system: MOLT-4 leukemia
DU-145 prostate = system: DU-145 prostate
OVCAR-4 ovarian = system: OVCAR-4 ovarian
SNB-75 CNS = system: SNB-75 CNS
K-562 leukemia = system: K-562 leukemia
EKVX NSCLC = system: EKVX NSCLC
OVCAR-3 ovarian = system: OVCAR-3 ovarian
NCI-H23 lung = system: NCI-H23 lung
RXF 393 renal = system: RXF 393 renal
786-0 renal = system: 786-0 renal
UACC-62 melanoma = system: UACC-62 melanoma
U251 CNS = system: U251 CNS
NCI-H522 lung = system: NCI-H522 lung
COLO 205 colon = system: COLO 205 colon
MDA-N = system: MDA-N
UO-31 renal = system: UO-31 renal
PC-3 prostate = system: PC-3 prostate
SNB-19 CNS = system: SNB-19 CNS
TK-10 renal = system: TK-10 renal
SW-620 colon = system: SW-620 colon
SF-295 CNS = system: SF-295 CNS
ACHN renal = system: ACHN renal
HS 578T breast = system: HS 578T breast
HCT-15 colon = system: HCT-15 colon
SK-MEL-5 melanoma = system: SK-MEL-5 melanoma
UACC-257 melanoma = system: UACC-257 melanoma
SN12C renal = system: SN12C renal
T-47D breast = system: T-47D breast
NCI-H226 lung = system: NCI-H226 lung
MDA-MB-231 breast = system: MDA-MB-231 breast
A549 NSCLC = system: A549 NSCLC
M14 melanoma = system: M14 melanoma
MDA-MB-435 = system: MDA-MB-435
SF-539 CNS = system: SF-539 CNS
HCT-116 colon = system: HCT-116 colon
HL-60(TB) leukemia = system: HL-60(TB) leukemia
CCRF-CEM leukemia = system: CCRF-CEM leukemia
OVCAR-5 ovarian = system: OVCAR-5 ovarian
CAKI-1 renal = system: CAKI-1 renal
SK-MEL-2 melanoma = system: SK-MEL-2 melanoma
HT29 colon = system: HT29 colon
LOX IMVI melanoma = system: LOX IMVI melanoma
BT-549 breast = system: BT-549 breast
NCI-H460 lung = system: NCI-H460 lung
NCI/ADR-RES ovarian = system: NCI/ADR-RES ovarian
OVCAR-8 ovarian = system: OVCAR-8 ovarian
HOP-62 NSCLC = system: HOP-62 NSCLC
HOP-92 NSCLC = system: HOP-92 NSCLC
SK-OV-3 ovarian = system: SK-OV-3 ovarian
MCF7 breast = system: MCF7 breast
SK-MEL-28 melanoma = system: SK-MEL-28 melanoma
RPMI-8226 leukemia = system: RPMI-8226 leukemia
KM12 colon = system: KM12 colon
IGROV1 ovarian = system: IGROV1 ovarian
A498 renal = system: A498 renal
MALME-3M melanoma = system: MALME-3M melanoma
HCC-2998 colon = system: HCC-2998 colon
SF-268 CNS = system: SF-268 CNS

SMILES: COc1cc(/C=C2\CC3C4CC=C5C[C@@H](O)CC[C@]5(C)C4CC[C@]3(C)\C2=N\O)cc(OC)c1OC (some centres undefined)
- TGI (MOLT-4 leukemia): > 100 µM
- TGI (DU-145 prostate): > 100 µM
- TGI (OVCAR-4 ovarian): 68.8 µM
- TGI (SNB-75 CNS): > 100 µM
- TGI (K-562 leukemia): > 100 µM
- TGI (EKVX NSCLC): > 100 µM
- TGI (OVCAR-3 ovarian): 61.4 µM
- TGI (NCI-H23 lung): 55.5 µM
- TGI (RXF 393 renal): 25.1 µM
- TGI (786-0 renal): 72.2 µM
- TGI (UACC-62 melanoma): 24 µM
- TGI (U251 CNS): 28.2 µM
- TGI (NCI-H522 lung): > 100 µM
- TGI (COLO 205 colon): 16.9 µM
- TGI (MDA-N): 69.6 µM
- TGI (UO-31 renal): 11.1 µM
- TGI (PC-3 prostate): 37.8 µM
- TGI (SNB-19 CNS): > 100 µM
- TGI (TK-10 renal): > 100 µM
- TGI (SW-620 colon): > 100 µM
- TGI (SF-295 CNS): 22 µM
- TGI (ACHN renal): 17.6 µM
- TGI (HS 578T breast): > 100 µM
- TGI (HCT-15 colon): 38.5 µM
- TGI (SK-MEL-5 melanoma): 19.2 µM
- TGI (UACC-257 melanoma): 61.1 µM
- TGI (SN12C renal): 54.1 µM
- TGI (T-47D breast): 18.8 µM
- TGI (NCI-H226 lung): 60.9 µM
- TGI (MDA-MB-231 breast): 74 µM
- TGI (A549 NSCLC): > 100 µM
- TGI (M14 melanoma): 27.6 µM
- TGI (MDA-MB-435): > 100 µM
- TGI (SF-539 CNS): 34.7 µM
- TGI (HCT-116 colon): 21.2 µM
- TGI (HL-60(TB) leukemia): > 100 µM
- TGI (CCRF-CEM leukemia): > 100 µM
- TGI (OVCAR-5 ovarian): 61.1 µM
- TGI (CAKI-1 renal): 37.7 µM
- TGI (SK-MEL-2 melanoma): 17.1 µM
- TGI (HT29 colon): > 100 µM
- TGI (LOX IMVI melanoma): 63.2 µM
- TGI (BT-549 breast): 37.2 µM
- TGI (NCI-H460 lung): 54.9 µM
- TGI (NCI/ADR-RES ovarian): 74.3 µM
- TGI (OVCAR-8 ovarian): > 100 µM
- TGI (HOP-62 NSCLC): > 100 µM
- TGI (HOP-92 NSCLC): > 100 µM
- TGI (SK-OV-3 ovarian): > 100 µM
- TGI (MCF7 breast): 15 µM
- TGI (SK-MEL-28 melanoma): > 100 µM
- TGI (RPMI-8226 leukemia): 40 µM
- TGI (KM12 colon): 23.5 µM
- TGI (IGROV1 ovarian): > 100 µM
- TGI (A498 renal): 42.6 µM
- TGI (MALME-3M melanoma): 50 µM
- TGI (HCC-2998 colon): 45 µM
- TGI (SF-268 CNS): > 100 µM

SMILES: COc1cc(O)c2c(=O)c3cccc(C)c3[nH]c2c1
- TGI (MOLT-4 leukemia): > 10 µM
- TGI (DU-145 prostate): > 10 µM
- TGI (OVCAR-4 ovarian): > 10 µM
- TGI (SNB-75 CNS): > 10 µM
- TGI (K-562 leukemia): > 10 µM
- TGI (EKVX NSCLC): > 10 µM
- TGI (OVCAR-3 ovarian): > 10 µM
- TGI (NCI-H23 lung): > 10 µM
- TGI (RXF 393 renal): > 10 µM
- TGI (786-0 renal): > 10 µM
- TGI (UACC-62 melanoma): > 10 µM
- TGI (U251 CNS): > 10 µM
- TGI (NCI-H522 lung): > 10 µM
- TGI (COLO 205 colon): > 10 µM
- TGI (MDA-N): > 10 µM
- TGI (PC-3 prostate): > 10 µM
- TGI (SNB-19 CNS): > 10 µM
- TGI (TK-10 renal): > 10 µM
- TGI (SW-620 colon): > 10 µM
- TGI (SF-295 CNS): > 10 µM
- TGI (ACHN renal): > 10 µM
- TGI (HS 578T breast): > 10 µM
- TGI (HCT-15 colon): > 10 µM
- TGI (SK-MEL-5 melanoma): > 10 µM
- TGI (UACC-257 melanoma): > 10 µM
- TGI (SN12C renal): > 10 µM
- TGI (T-47D breast): > 10 µM
- TGI (NCI-H226 lung): > 10 µM
- TGI (MDA-MB-231 breast): > 10 µM
- TGI (A549 NSCLC): > 10 µM
- TGI (M14 melanoma): > 10 µM
- TGI (MDA-MB-435): > 10 µM
- TGI (SF-539 CNS): > 10 µM
- TGI (HCT-116 colon): > 10 µM
- TGI (HL-60(TB) leukemia): > 10 µM
- TGI (CCRF-CEM leukemia): > 10 µM
- TGI (OVCAR-5 ovarian): > 10 µM
- TGI (CAKI-1 renal): > 10 µM
- TGI (SK-MEL-2 melanoma): > 10 µM
- TGI (HT29 colon): > 10 µM
- TGI (LOX IMVI melanoma): > 10 µM
- TGI (BT-549 breast): > 10 µM
- TGI (NCI-H460 lung): > 10 µM
- TGI (NCI/ADR-RES ovarian): > 10 µM
- TGI (OVCAR-8 ovarian): > 10 µM
- TGI (HOP-62 NSCLC): > 10 µM
- TGI (SK-OV-3 ovarian): > 10 µM
- TGI (MCF7 breast): > 10 µM
- TGI (SK-MEL-28 melanoma): > 10 µM
- TGI (RPMI-8226 leukemia): > 10 µM
- TGI (KM12 colon): > 10 µM
- TGI (IGROV1 ovarian): > 10 µM
- TGI (A498 renal): > 10 µM
- TGI (MALME-3M melanoma): > 10 µM
- TGI (HCC-2998 colon): > 10 µM
- TGI (SF-268 CNS): > 10 µM

— PubChem BioAssay (NCI)
